Common to all, as to type: physicochemical
Data set [1] in a line: Interconversion slurry experiments (relative stability of solid forms, XRPD). The protocol:
Interconversion slurry experiments were performed in a variety of solvents at different temperatures. Sufficient amounts of Compound 1 were added to solvents in vials so that excess solid remained. The mixtures were agitated in sealed vials at the selected temperature and the solids were isolated by filtration after the selected time and analyzed by XRPD.

Data set [2] can be described thus: Physical stability of amorphous Compound 1 (vapor stress and slurry, XRPD). The protocol: The physical stability of the amorphous material was characterized. […] Amorphous Compound 1 was also slurried in methanol\water (1:1) for 5 days at 60° C. resulting in irregular fragments of crystals determined to be Form B by XRPD.
Data set [3] can be described thus: Physical stability / hygroscopicity of polymorph Form A (relative humidity exposure). To be noted: 5 to 95% relative humidity at 25° C. (5 hours). The protocol: The physical stability of polymorph Form A was characterized. A samples of Form A exposed to 5 to 95% relative humidity at 25° C.
A short description of data set [4]: Physical stability of polymorph Form B under humidity stress (XRPD).
The nature of another data set: Vacuum drying experiment.

Entries after “also recorded” stand apart in the source; their conditions may differ.

In the case of `O=C(CNC(=O)c1ccc(C2=NOC(c3cc(Cl)cc(C(F)(F)F)c3)(C(F)(F)F)C2)c2ccccc12)NCC(F)(F)F` (racemic) [Compound 1, 4-[5-[3-chloro-5-(trifluoromethyl)phenyl]-4,5-dihydro-5-(trifluoromethyl)-3-isoxazolyl]-N-[2-oxo-2-[(2,2,2-trifluoroethyl)amino]ethyl]-1-naphthalenecarboxamide], the “solid form yielded by slurry (XRPD)” value in data set [1] (acetonitrile, 3 days at 83° C.) is recorded as “Pattern G solid”; in data set [1] (acetonitrile, 8 days at 0° C.) it was “Pattern G solid”; in data set [1] (acetonitrile/water (9:1), 3 days at 83° C.), “polymorph Form B”; in data set [1] (acetonitrile/water (9:1), 8 days at 0° C.), “Pattern G solid”.

As for `O=C(CNC(=O)c1ccc(C2=NOC(c3cc(Cl)cc(C(F)(F)F)c3)(C(F)(F)F)C2)c2ccccc12)NCC(F)(F)F` (centres unmarked) [Amorphous Compound 1, 4-[5-[3-chloro-5-(trifluoromethyl)phenyl]-4,5-dihydro-5-(trifluoromethyl)-3-isoxazolyl]-N-[2-oxo-2-[(2,2,2-trifluoroethyl)amino]ethyl]-1-naphthalenecarboxamide], the “physical stability of the amorphous solid” value in data set [2] (pure solid form, conclusion of vapor stress and slurry) is “physically unstable and readily crystallized”. In data set [2] (slurried in methanol\water (1:1) for 5 days at 60° C.), the “solid form obtained after slurry (by XRPD)” value is on record as “Form B”. Further, the “solid form obtained after vapor stress (by XRPD)” value in data set [2] (vapor stressed under acetonitrile at 25° C. for 2 days) is “Pattern G material”.

Consider `O=C(CNC(=O)c1ccc(C2=NOC(c3cc(Cl)cc(C(F)(F)F)c3)(C(F)(F)F)C2)c2ccccc12)NCC(F)(F)F` (centres unmarked) [Form A, 4-[5-[3-chloro-5-(trifluoromethyl)phenyl]-4,5-dihydro-5-(trifluoromethyl)-3-isoxazolyl]-N-[2-oxo-2-[(2,2,2-trifluoroethyl)amino]ethyl]-1-naphthalenecarboxamide], for which, in data set [3], the hygroscopicity result is recorded as “non-hygroscopic” and the “weight change on exposure to relative humidity” value is reported as “negligible weight change”. Further, the “relative physical stability of solid forms” value (“relative physical stability” for short) in data set [1] (in acetonitrile) is given as “metastable solid form”.

Turning to `O=C(CNC(=O)c1ccc(C2=NOC(c3cc(Cl)cc(C(F)(F)F)c3)(C(F)(F)F)C2)c2ccccc12)NCC(F)(F)F` (centres unmarked) [Form B, 4-[5-[3-chloro-5-(trifluoromethyl)phenyl]-4,5-dihydro-5-(trifluoromethyl)-3-isoxazolyl]-N-[2-oxo-2-[(2,2,2-trifluoroethyl)amino]ethyl]-1-naphthalenecarboxamide], in data set [1] (in organic solvent/water mixtures especially methanol/water), the “relative physical stability” value is given as “most stable solid form”. Moreover, the “change by XRPD after humidity stress” value in data set [4] (60% relative humidity (25° C.) for 1 month) and in data set [4] (75% relative humidity (40° C.) for 1 month) was “unchanged by XRPD” throughout. Besides, in data set [4] (pure solid form, conclusion of humidity stress conditions tested), the “physical stability of Form B” value is on record as “physically stable; also recorded: stable under the conditions tested”.

Regarding `O=C(CNC(=O)c1ccc(C2=NOC(c3cc(Cl)cc(C(F)(F)F)c3)(C(F)(F)F)C2)c2ccccc12)NCC(F)(F)F` (centres unmarked) [Pattern G solid], the “solid form obtained after vacuum drying” value in “Vacuum drying experiment” (vacuum drying (36-68 mtorr) at 50° C. for 4 hours) is given as “Form A”; in the data set “Vacuum drying experiment” (vacuum drying (51 mtorr) at 70° C. for 5 hours), “solid glass”. Further, in data set [1] (in acetonitrile), the “relative physical stability” value was “most stable solid form”.

Values taken from patent US8598087B2, “Crystalline form of 4-[5-[3-chloro-5-(trifluoromethyl)phenyl]-4, 5-dihydro-5-(trifluoromethyl)-3-isoxazolyl]-N-[2-0X0-2-[(2,2,2-trifluoroethyl)amino]ethyl]-1- naph-thalenecarboxamide” (E. I. du Pont de Nemours and Company, priority 2010, dated 2013).
